Data: patent US10821115B2, “Compounds that inhibit Mcl-1 protein” (priority 2017, dated 2020)
Where two headings read alike, the source gives them in different places.

Assays:
[1] = tested on: human multiple myeloma cell line, OPM-2; experiment: Cell viability assay (OPM-2 10 FBS), CellTiter-Glo; format: cell-based
Procedure, shortened: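 OPM-2 cells at 3000 cells/well in RPMI 1640 with 10% FBS were exposed to serially diluted compounds for 16 h at 37 °C, 5% CO2.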

[2] = target: recombinant human Mcl-1 (residues 171-327) / Bim interaction (Homo sapiens (Human), UniProt Q07820); experiment: biochemical; format: binding; conditions: TR-FRET, Mcl-1(171-327) / biotin-Bim (51-76); read-out: Mcl-1 HTRF IC50
Sequence of recombinant human Mcl-1 (residues 171-327) / Bim interaction (Q07820 171-327): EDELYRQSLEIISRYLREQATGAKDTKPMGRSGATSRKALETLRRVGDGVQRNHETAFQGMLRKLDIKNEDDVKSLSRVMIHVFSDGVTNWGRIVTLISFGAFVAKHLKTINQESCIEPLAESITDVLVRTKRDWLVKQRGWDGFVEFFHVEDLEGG

[3] = read-out: OPM-2 10% FBS IC50 IP, OPM-2 cells, 10% FBS, 16 h, CellTiter-Glo

Structure (SMILES): C[C@@H]1[C@@H](C)CCC[C@]2(CC(N(C)C)=NO2)[C@@H]2CC[C@H]2CN2C[C@@]3(CCCc4cc(Cl)ccc43)COc3ccc(cc32)C(=O)NS1(=O)=O [Example 100136, (1S,3′R,6′R,7′S,11′S,12′R)-6-chloro-3″- (dimethylamino)-11′,12′-dimethyl-3,4-dihydro-2H,4″H,15′H-dispiro[naphthalene-1,22′-[20]oxa[13]thia[1,14]diazatetracyclo [14.7.2.0~3,6~.0~19,24~]pentacosa[16,18,24]triene-7′,5″-[1,2]oxazol]-15′-one 13′,13′-dioxide]
- IC50 ([1]; Homo sapiens, OPM-2, 16 h, read-out: OPM-2 10% FBS IC50 IP, OPM-2 cells, 10% FBS, 16 h, CellTiter-Glo): 556 nM
- IC50 [2]: 0.368 nM

Structure (SMILES): C[C@@H]1[C@@H](C)C/C=C/[C@@](O)([C@@H]2CCN(C)C2=O)[C@@H]2CC[C@H]2CN2C[C@@]3(CCCc4cc(Cl)ccc43)COc3ccc(cc32)C(=O)NS1(=O)=O [Example 100137, (1S,3′R,6′R,7′S,8′E,11′S,12′R)-6-chloro-7′-hydroxy-11′,12′-dimethyl-7′-((3S)-1-methyl-2-oxo-3-pyrrolidinyl)-3,4-dihydro-2H,15′H-spiro[naphthalene-1,22′-[20]oxa[13]thia[1,14]diazatetracyclo [14.7.2.0~3,6~.0~19,24~]pentacosa[8,16,18,24]tetraen]-15′-one 13′,13′-dioxide]
- IC50 [1, 3]: 2820 nM
- IC50 [2]: 0.365 nM

Structure (SMILES): C[C@@H]1[C@@H](C)CCC[C@@](O)(CS(=O)(=O)N2CCN(C)CC2)[C@@H]2CC[C@H]2CN2C[C@@]3(CCCc4cc(Cl)ccc43)COc3ccc(cc32)C(=O)NS1(=O)=O [Example 100138, (1S,3′R,6′R,7′S,11′S,12′R)-6-chloro-7′-hydroxy-11′,12′-dimethyl-7′-(((4-methyl-1-piperazinyl)sulfonyl)methyl)-3,4-dihydro-2H,15′H-spiro[naphthalene-1,22′-[20]oxa[13]thia[1,14]diazatetracyclo [14.7.2.0~3,6~.0~19,24~]pentacosa[16,18,24]trien]-15′-one 13′,13′-dioxide]
- IC50 [1, 3]: 342 nM
- IC50 [2]: 0.549 nM

Structure (SMILES): C[C@@H]1[C@@H](C)CCC[C@@](O)(CS(=O)(=O)N2CCN(C)CC2)[C@@H]2CC[C@H]2CN2C[C@@]3(CCCc4cc(Cl)ccc43)COc3ccc(cc32)C(=O)NS1(=O)=O [Example 100139, (1S,3′R,6′R,7′S,11′S,12′R)-6-chloro-7′-hydroxy-11′,12′-dimethyl-7′-(((4-methyl-1-piperazinyl)sulfonyl)methyl)-3,4-dihydro-2H,15′H-spiro[naphthalene-1,22′-[20]oxa[13]thia[1,14]diazatetracyclo [14.7.2.0~3,6~.0~19,24~]pentacosa[16,18,24]trien]-15′-one 13′,13′-dioxide]
- IC50 [1, 3]: 974 nM
- IC50 [2]: 2.58 nM

Structure (SMILES): COCCN(C)C(=O)C[C@]1(O)CCC[C@H](C)[C@@H](C)S(=O)(=O)NC(=O)c2ccc3c(c2)N(C[C@@H]2CC[C@H]21)C[C@@]1(CCCc2cc(Cl)ccc21)CO3 [Example 100140, 2-((1S,3′R,6′R,7′R,11′S,12′R)-6-chloro-7′-hydroxy-11′,12′-dimethyl-13′,13′-dioxido-15′-oxo-3,4-dihydro-2H-spiro[naphthalene-1,22′-[20]oxa[13]thia[1,14]diazatetracyclo [14.7.2.0~3,6~.0~19,24~]pentacosa[16,18,24]trien]-7′-yl)-N-(2-methoxyethyl)-N-methylacetamide]
- IC50 [1, 3]: 299 nM
- IC50 [2]: 0.486 nM

Structure (SMILES): COCCN(C)C(=O)C[C@]1(O)CCC[C@H](C)[C@@H](C)S(=O)(=O)NC(=O)c2ccc3c(c2)N(C[C@@H]2CC[C@H]21)C[C@@]1(CCCc2cc(Cl)ccc21)CO3 [Example 100141, 2-((1S,3′R,6′R,7′R,11′S,12′R)-6-chloro-7′-hydroxy-11′,12′-dimethyl-13′,13′-dioxido-15′-oxo-3,4-dihydro-2H-spiro[naphthalene-1,22′-[20]oxa[13]thia[1,14]diazatetracyclo [14.7.2.0~3,6~.0~19,24~]pentacosa[16,18,24]trien]-7′-yl)-N-(2-methoxyethyl)-N-methylacetamide]
- IC50 [1, 3]: 1370 nM
- IC50 [2]: 1.06 nM
